The source of these data is patent US20170158702A1, “MULTIVALENT RAS BINDING COMPOUNDS” (KYRAS THERAPEUTICS, INC., priority 2015, published 2017).

Common to all, as to assay type: cell-based
Assay [1] relates to U2OS. The assay can be described thus: Viability assay with U2OS. As to conditions: viability assay per Example 57. On the procedure: (§1) NCI-H460 (Epithelial lung tissue; carcinoma; large cell lung cancer) were cultured in RPMI Medium 1640 (Invitrogen-22400105) supplemented with 10% fetal bovine serum (FBS; Invitrogen-10099141). All the cell lines were maintained in a humidified incubator at 37° C. with 5% CO2. Cell culture media and supplements were purchased from Invitrogen, and tissue culture flasks were purchased from Corning, 96-well plates were purchased from Greiner. CellTiter-Glo Luminescent Cell Viability Assay kits were purchased from Promega (Promega-G7573), cells counter Vi-Cell was purchased from Beckman, D300e digital dispenser was purchased from Tecan, detection instrument Envision was purchased from PerkinElmer.
(§2) Paclitaxel was purchased from SELLECK, test compounds, such as any one of the compounds disclosed herein, attained solubility in DMSO and when diluted into culture media. DMSO, solutions containing the test compounds, and culture media were warmed to 37° C. or room temperature for the solution preparation and dilutions.
(§3) NCI-H460 Cell line were seeded in 96-well plates (1200/well) and allowed to adhere to overnight (100 uL/well), for drug treatments with 2 fold dilution, 9 dose points, triplicates or vehicle control, compound stock solutions were prepared in DMSO and use D300e digital dispenser to add compounds to the wells to give the indicated final drug concentrations. Final DMSO concentration was 0.5%. Cellular ATP concentrations were assessed by using the CellTiter-Glo Cell Viability Assay as per the manufacturer's instructions 72 h after compounds addition. Additional cells lines were assayed with any one of the compounds disclosed herein according to the procedures described for the viability assay with NCI-H460.
The viability assay with U2OS (epithelial bone tissue; osteosarcoma) was performed with compounds listed in Table 17 according to the procedures described in Example 57.

The test system of assay [2] is NCI-H460. In words: Viability assay with NCI-H460 (CellTiter-Glo cytotoxicity assay, 72 h). As to conditions: NCI-H460 cell line, 72 h after compounds addition. The essentials: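 NCI-H460 cells, RPMI 1640 + 10% FBS, seeded 1200/well and adhered overnight, then exposed to compounds at 9 points, 2-fold dilution, in triplicate, 0.5% DMSO final. Cellular ATP measured by CellTiter-Glo luminescence 72 h after addition.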

Assay [3] relates to MIA PaCa-2. In words: Viability assay with MIA PaCa-2. As to conditions: MIA PaCa-2, viability assay per Example 57. The gist of the method:
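MIA PaCa-2 cells were seeded at 1200/well, allowed to adhere overnight, then treated in triplicate with 9-point 2-fold compound dilutions at 0.5% final DMSO. Viability was measured as cellular ATP by CellTiter-Glo luminescence 72 h after compound addition.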

The test system of assay [4] is HT-29. In words: Viability assay with HT-29. As to conditions: HT-29, viability assay per Example 57. The essentials:
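Cells seeded 1200/well, adhered overnight, then treated with 9-point 2-fold compound dilutions in triplicate (0.5% final DMSO). Viability taken as cellular ATP by CellTiter-Glo luminescence 72 h after compound addition.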

The test system of assay [5] is NCI-H2023. The assay can be described thus: Viability assay with NCI-H2023. As to conditions: NCI-H2023, viability assay per Example 57. As for the experimental part: as §1, §2, §3
A viability assay with NCI-H2023 (stage 3A, adenocarcinoma; non-small cell lung cancer) was performed with compounds listed in Table 16 according to the procedures described in Example 57.

pEC50: −log10 of the molar value. Counter-ions that a name gives are not always drawn.

With `COc1cccc(CN2CCN(Cc3ccc4c(c3)c(-c3ccc(OC(F)(F)F)cc3)cn4CCCN)CC2)c1Cl` [C12; HCl], the negative-log EC50 (pEC50) in assay [1], in assay [2] and in assay [3] was at least 5.30 in each case.

Take `COc1ccccc1-c1cn(CCCN)c2ccc(CN3CCN(Cc4c(Cl)cccc4Cl)CC3)cc12` [C2; HCl]: the pEC50 in assay [1], in assay [2] and in assay [3] was at least 5.30 in each case.

Regarding `NCCCn1cc(-c2ccccc2CN)c2cc(CN3CCN(Cc4c(Cl)cccc4Cl)CC3)ccc21` [C162; HCl], the pEC50 in assay [1] and in assay [4] was at least 5.30 each time.

`NCCCn1cc(-c2ccccc2Cl)c2cc(CN3CCN(Cc4c(Cl)cccc4Cl)CC3)ccc21` [C167; HCl]: the pEC50 in assay [1], in assay [2] and in assay [3] was at least 5.30 each time.

Regarding `N#Cc1ccccc1-c1cn(CCCN)c2ccc(CN3CCN(Cc4c(Cl)cccc4Cl)CC3)cc12` [C8; HCl], the pEC50 in assay [1], in assay [2] and in assay [3] was at least 5.30 in each case.

With `NCCCn1cc(-c2ccc(OC(F)(F)F)cc2)c2cc(CN3CCN(Cc4cccc(Cl)c4Cl)CC3)ccc21` [C164; HCl], the negative-log EC50 (pEC50) in assay [1], in assay [2] and in assay [3] was at least 5.30 in each case.

On to `CN(CCNCc1ccc2c(c1)c(-c1ccc(OC(F)(F)F)cc1)cn2CCCN)Cc1ccccc1Cl` [C173; HCl], for which the negative-log EC50 (pEC50) in assay [1], in assay [2] and in assay [3] was at least 5.30 each time.

Turning to `NCCCn1cc(-c2ccc(OC(F)(F)F)cc2)c2cc(CN3CCN(Cc4cccc(C(F)(F)F)c4Cl)CC3)ccc21` [C155; HCl], the pEC50 in assay [1], in assay [2] and in assay [3] was at least 5.30 throughout.

Turning to `NCCCn1cc(-c2ccc(OC(F)(F)F)cc2)c2cc(CN3CCC4(CC3)CCN(Cc3ccccc3Cl)C4)ccc21` [C5; HCl], the negative logarithm of the EC50 (pEC50) in assay [1], in assay [2] and in assay [3] was at least 5.30 in each case.

With `CCc1ccc(-c2cn(CCCN)c3ccc(CN4CC5CCC(C4)N5Cc4ccccc4Cl)cc23)cc1` [C157; HCl], the pEC50 in assay [1], in assay [2] and in assay [3] was at least 5.30 in each case.

Consider `COc1ccc(F)c(CN2CCN(Cc3ccc4c(c3)c(-c3ccc(OC(F)(F)F)cc3)cn4CCCN)CC2)c1` [C1; HCl], for which the negative-log EC50 (pEC50) in assay [1], in assay [2] and in assay [3] was at least 5.30 each time.

In the case of `COc1ccc(-c2cn(CCCN)c3ccc(CN4CC5CCC(C4)N5Cc4ccccc4Cl)cc23)cc1` [C158; HCl], the pEC50 in assay [1], in assay [2] and in assay [3] was at least 5.30 each time.

Turning to `NCCCn1cc(-c2ccc(OC(F)(F)F)cc2)c2cc(CN3CCN(Cc4cccc(OC(F)(F)F)c4)CC3)ccc21` [C163; HCl], the negative-log EC50 (pEC50) in assay [1], in assay [2] and in assay [3] was at least 5.30 each time.

As to `Cc1ccc(-c2cn(CCCNC(=O)C3(N)CCNCC3)c3ccc(CN4CCN(Cc5c(Cl)cccc5Cl)CC4)cc23)cc1` [C39; HCl], the negative-log EC50 (pEC50) in assay [5], in assay [2] and in assay [3] was at least 5.30 each time.

Turning to `NCCCn1cc(-c2ccc(OC(F)(F)F)cc2)c2cc(CN3CCC(Cc4ccccc4Cl)CC3)ccc21` [C3; HCl], the pEC50 in assay [1], in assay [2] and in assay [3] was at least 5.30 each time.

`NCCCn1cc(-c2ccc(OC(F)(F)F)cc2)c2cc(CC3CCN(Cc4ccccc4Cl)CC3)ccc21` [C159; HCl]: the pEC50 in assay [1], in assay [2] and in assay [3] was at least 5.30 in each case.

Take `NC1(C(=O)NCCCn2cc(-c3ccc(OC(F)(F)F)cc3)c3cc(CN4C5CCC4CN(Cc4c(Cl)cccc4Cl)C5)ccc32)CCNCC1` [C56; HCl]: the pEC50 in assay [5], in assay [2] and in assay [3] was at least 5.30 throughout.

Consider `COc1cccc(OC)c1CN1CCN(Cc2ccc3c(c2)c(-c2ccc(OC(F)(F)F)cc2)cn3CCCNC(=O)C2(N)CCNCC2)CC1` [C49; HCl], for which the negative logarithm of the EC50 (pEC50) in assay [5], in assay [2] and in assay [3] was 5.00 to 5.30 in each case.

For `NCCCn1cc(-c2ccc(OC(F)(F)F)cc2)c2cc(CN3CCN(Cc4cccc(Cl)c4)CC3)ccc21` [C9; HCl], the pEC50 in assay [1], in assay [2] and in assay [3] was at least 5.30 each time.

In the case of `COc1cc(CN2CCN(Cc3ccc4c(c3)c(-c3ccc(OC(F)(F)F)cc3)cn4CCCN)CC2)cc(OC)c1` [C11; HCl], the negative-log EC50 (pEC50) in assay [1], in assay [2] and in assay [3] was at least 5.30 each time.

In the case of `N#Cc1cccc(-c2cn(CCCN)c3ccc(CN4CCN(Cc5c(Cl)cccc5Cl)CC4)cc23)c1` [C13; HCl], the pEC50 in assay [5], in assay [2] and in assay [3] was at least 5.30 in each case.

For `CCN1CCN(Cc2ccc3c(c2)c(-c2ccc(OC(F)(F)F)cc2)cn3CCCNC(=O)C2(N)CCNCC2)CC1` [C27; HCl], the pEC50 – broadly, the EC50 on a negative log10 scale, so that one unit is a factor of ten – in assay [5] is 4.52 to 5.00; in assay [2], under 4.52; in assay [3], 4.52 to 5.00.

Regarding `NC1(C(=O)NCCCCn2cc(-c3ccc(OC(F)(F)F)cc3)c3cc(CN4CCN(Cc5c(Cl)cccc5Cl)CC4)ccc32)CCNCC1` [C35; HCl], the negative logarithm of the EC50 (pEC50) in assay [5], in assay [2] and in assay [3] was at least 5.30 each time.

`NCCCn1cc(-c2ccc(OC(F)(F)F)cc2)c2cc(CN3CCN(S(=O)(=O)c4ccccc4Cl)CC3)ccc21` [C14; HCl]: the pEC50 in assay [5], in assay [2] and in assay [3] was at least 5.30 each time.

On to `NCCCn1cc(-c2ccc(N)cc2)c2cc(CN3CCN(Cc4c(Cl)cccc4Cl)CC3)ccc21` [C50; HCl], for which the pEC50 in assay [5], in assay [2] and in assay [3] was at least 5.30 in each case.

On to `CC(C)N1CCN(Cc2ccc3c(c2)c(-c2ccc(OC(F)(F)F)cc2)cn3CCCNC(=O)C2(N)CCNCC2)CC1` [C34; HCl], for which the negative logarithm of the EC50 (pEC50) in assay [5], in assay [2] and in assay [3] was 4.52 to 5.00 each time.

Regarding `N#Cc1cccc(-c2cccc(Cl)c2CN2CCN(Cc3ccc4c(c3)c(-c3cccc(C#N)c3)cn4CCCN)CC2)c1` [C4; HCl], the negative logarithm of the EC50 (pEC50) in assay [1], in assay [2] and in assay [3] was at least 5.30 in each case.

With `NCCCn1cc(-c2ccc(OC(F)(F)F)cc2)c2cc(CN3CC4CCC(C3)N4Cc3c(Cl)cccc3Cl)ccc21` [C32; HCl], the pEC50 in assay [5], in assay [2] and in assay [3] was at least 5.30 in each case.

As for `Cc1cccc(C)c1CN1CCN(Cc2ccc3c(c2)c(-c2ccc(OC(F)(F)F)cc2)cn3CCCNC(=O)C2(N)CCNCC2)CC1` [C54; HCl], the negative logarithm of the EC50 (pEC50) in assay [5], in assay [2] and in assay [3] was at least 5.30 in each case.

Take `NC1(C(=O)NCCCn2cc(-c3ccccc3)c3cc(CN4CCN(Cc5c(Cl)cccc5Cl)CC4)ccc32)CCNCC1` [C24; HCl]: the negative-log EC50 (pEC50) in assay [5], in assay [2] and in assay [3] was at least 5.30 each time.

Take `NCCCn1cc(-c2ccc(CN)cc2)c2cc(CN3CCN(Cc4c(Cl)cccc4Cl)CC3)ccc21` [C10; Formic acid]: the pEC50 in assay [1], in assay [2] and in assay [3] was at least 5.30 throughout.

On to `NCCCn1cc(-c2ccc(OC(F)(F)F)cc2)c2cc(CN3CCN(Cc4cc(F)ccc4Cl)CC3)ccc21` [C165; HCl], for which the pEC50 in assay [1], in assay [2] and in assay [3] was at least 5.30 throughout.

As to `NCCN(CCN)CCCn1cc(-c2ccc(OC(F)(F)F)cc2)c2cc(CN3CCN(Cc4c(Cl)cccc4Cl)CC3)ccc21` [C7; Formic acid], the pEC50 in assay [1], in assay [2] and in assay [3] was at least 5.30 each time.

For `NCCCn1cc(-c2ccc(OC(F)(F)F)cc2)c2cc(CN3CCN(CC(F)(F)F)CC3)ccc21` [C160; HCl], the pEC50 in assay [1], in assay [2] and in assay [3] was at least 5.30 in each case.

On to `CN(CCN(C)Cc1ccccc1Cl)Cc1ccc2c(c1)c(-c1ccc(OC(F)(F)F)cc1)cn2CCCN` [C172; HCl], for which the pEC50 in assay [1], in assay [2] and in assay [3] was at least 5.30 in each case.
